Assays:
U-87MG = test: Cell viability, neuroblastoma cell lines (CellTiter-Glo); format: cell-based; details: Homo sapiens, 96 h, MYCN gene amplification absent, 4 days
Protocol: (§1) The neuroblastoma cell lines CHP-212, SK-N-BE(2), SK-N-DZ, LN-18, U-87 MG, and SW1088 were obtained from ATCC (American Type Culture Collection), and cultured with Dulbecco's modified Eagle's medium F-12 (DMEM-F12) supplemented with 10% FBS (both from Thermo Fisher Scientific, Walthman, MA) under conditions of 5% CO2 and 37° C. for use.
(§2) Each of the aforementioned six cell lines (4000 cells/90 μL for each case) was seeded in wells of a 96-well plate, and then 10 μL of medium containing DMSO alone or compound A (1 nM, 3 nM, 10 nM, 30 nM, 100 nM, 300 nM, 1000 nM, 3000 nM, and 10000 nM) was quickly added to give different final concentrations. After culturing for 4 days following the addition, the following evaluation of cell viabilities was carried out.
(§3) Evaluation of cell viabilities after different treatments was carried out by measuring intracellular adenosine triphosphate (ATP) with CellTiter-Glo. Specifically, 100 μL of CellTiter-Glo solution was added to each well, incubation was performed at room temperature for 15 minutes, and the chemiluminescence was then measured. The mean of each combination was calculated from the resulting data, and concentration response curves on cell viabilities as the emission intensity in the cells treated with DMSO alone was defined as 100% were drawn for single use or combined use of each agent.
(§4) The 50% inhibition concentration (IC50) of compound A was determined by using Graph Pad Prism software version 7.0 (GraphPad Software Inc.).

SW1088 = test: as above; format: cell-based; details: Homo sapiens, 96 h; SW1088, MYCN gene amplification absent, 4 days
Protocol: as §1, §2, §3, §4

CHP-212 = test: as above; format: cell-based; details: Homo sapiens, 96 h; CHP-212, MYCN gene amplification present, 4 days
Protocol: as §1, §2, §3, §4

SK-N-BE(2) = test: as above; format: cell-based; details: Homo sapiens, SKNBE2, 96 h, MYCN gene amplification present, 4 days
Protocol: as §1, §2, §3, §4

LN-18 = test: as above; format: cell-based; details: Homo sapiens, 96 h; LN-18, MYCN gene amplification absent, 4 days
Protocol: as §1, §2, §3, §4

SK-N-DZ = test: as above; format: cell-based; details: Homo sapiens, 96 h, MYCN gene amplification present, 4 days
Protocol: as §1, §2, §3, §4

[1] = tested on: progressive/recurrent or intractable malignant tumors; test: Phase I clinical trial of compound A; format: in vivo, human
Protocol: In the present analysis, as phase I clinical trial of compound A to progressive/recurrent or intractable malignant tumors in accordance with a protocol approved by National Cancer Center Institutional Review Board, tumor tissue specimens in cases with informed consent were obtained and mutation analysis of cancer-related genes by Oncomine Comprehensive Assay v3 was carried out in the following procedure.
For best overall response in analyzed cases, two cases with partial response (PR) were present for ovarian cancer, and seven cases with stable disease (SD) and five cases with progressive disease (PD) were present for others.
Three of the 14 cases were cases in which the number of days from the day of initial administration to the day of final administration (treatment period) was more than 168 (28 days/cycle×6 cycles). Two of the three cases were the ovarian cancer cases with PR and the other one case was likewise an ovarian cancer case with SD. On the assumption that strong therapeutic effect was found for the three cases (case A: the best overall response was SD, the treatment period was 186 days, case B: the best overall response was PR, the treatment period was 193 days, case C: the best overall response was PR, the treatment period was 387 days), the correlation with each mutation was analyzed.
Mutation analysis of cancer-related genes by Oncomine Comprehensive Assay v3 was carried out for four cases differing from the 14 cases analyzed in Example 8. Also for the four cases, as phase I clinical trial of compound A to progressive/recurrent or intractable malignant tumors in accordance with a protocol approved by National Cancer Center Institutional Review Board, tumor tissue specimens in cases with informed consent were obtained. Sequence analysis was performed in the same manner as in Example 8. However, the calculation method in Example 9 was used in calculating tumor rates for use in analysis of CNV.
For best overall response in the two cases, one case with SD and one case with PD were present. The number of days from the day of initial administration to the day of final administration (treatment period) was more than 168 (28 days/cycle×6 cycles) in one case with SD among those cases. This one case with SD (case D: the best overall response was SD, the treatment period was 386 days), which was a clear cell sarcoma case, was considered to involve strong therapeutic effect, and analyzed for the correlation with each mutation.

[2] = tested on: mouse-derived tumor BTG-R502 having MMTV-HRAS; test: Mouse subcutaneous transplantation model, MMTV-HRAS; format: in vivo; details: twice a week, day 14
Protocol: A tumor piece of the mouse-derived tumor BTG-M605 having MMTV-MYCC or the mouse-derived tumor BTG-R502 having MMTV-HRAS (both from Shanghai Medicilon Inc.) was subcutaneously transplanted into the abdomen of each female nude mouse. Calipers were used in measuring tumor volume, which was calculated from the calculation formula: tumor volume=(tumor major axis×tumor minor axis×tumor minor axis)/2. When the tumor volumes reached approximately 180 mm^3, the mice were grouped into four groups each consisting of eight mice. Compound A was orally administered in an intermittent manner according to a schedule in which a twice-daily dose of 12.5, 25, or 50 mg/kg was administered twice a week (on days 0, 4, 7, and 11) for 14 days. To a control group, 0.5% methylcellulose solution was orally administered. After the grouping, measurement of tumor volume was performed twice a week. T/C (%) on day 14 was used as an index of antitumor effect.

[3] = two evaluable additional cases of Example 10

Q: How did the IC50 (U-87MG) turn out when COc1ncnn2ccc(-c3cnc4nc(C)n(Cc5nnc([C@@H](C)F)o5)c4c3)c12 [compound A] was run?
A: 101 nM

Q: What about the IC50 (SW1088) of the same compound?
A: 152 nM

Q: What about the IC50 (CHP-212) of the same compound?
A: 65.9 nM

Q: And the IC50 (SK-N-BE(2))?
A: 86.6 nM

Q: And the IC50 (LN-18)?
A: 106 nM

Q: And the IC50 (SK-N-DZ)?
A: 25.4 nM

Q: And the “cases with progressive disease (PD) as best overall response” value ([1]; 14 analyzed cases of Example 8)?
A: five

Q: What about the “cases with stable disease (SD) as best overall response” value ([1]; 14 analyzed cases of Example 8) of the same compound?
A: seven

Q: And the “cases with partial response (PR) as best overall response” value ([1]; 14 analyzed cases of Example 8, ovarian cancer)?
A: two

Q: What about the “treatment period (day of initial to day of final administration)” value (“treatment period” below) ([1]; case A, ovarian cancer) of the same compound?
A: 186 days

Q: And the “treatment period” value ([1]; case B, ovarian cancer)?
A: 193 days

Q: And the “treatment period” value ([1]; case C, ovarian cancer)?
A: 387 days

Q: What about the “treatment period” value ([1]; case D, clear cell sarcoma) of the same compound?
A: 386 days

Q: What about the “treatment period” value ([1]; one ovarian cancer case in which strong therapeutic effect was not found) of the same compound?
A: 11 days

Q: What about the “treatment period” value ([1]; one thymoma case) of the same compound?
A: 99 days

Q: What about the “treatment period” value ([1]; one transverse colon cancer case) of the same compound?
A: 144 days

Q: What about the “cases with PD as best overall response” value [1, 3] of the same compound?
A: one

Q: What about the “cases with SD as best overall response” value [1, 3] of the same compound?
A: one

Q: And the “T/C(%)” value ([2]; oral 12.5 mg/kg twice daily)?
A: 71.1%

Q: And the “T/C(%)” value ([2]; oral 25 mg/kg twice daily)?
A: 54.4%

Q: And the “T/C(%)” value ([2]; oral 50 mg/kg twice daily)?
A: 14.4%

— patent publication US20260108526A1, “BIOMARKER FOR TREATMENT OF SOLID CANCER WITH IMIDAZO[4,5-b]PYRIDINE DERIVATIVE” (CHORDIA THERAPEUTICS INC., priority 2022, published 2026)
